From patent US20230265104A1, “NOVEL HETEROCYCLIC COMPOUNDS” (PRISM BIOLAB CO., LTD., priority 2020, published 2023)

Test system: PANC-1 (human pancreatic cancer-derived cell line)
Test: MTS assay on Panc-1 (human pancreas carcinoma cell line)
Type: cell-based
Conditions: 144 h; for IC50: PANC-1, MTS method, cell survival 6 days after exposure, 4-parameter logistic fit; for inhibition at 0.3125 µM: read-out: Growth inhibition (%) 0.3125 μM
Method in brief: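 Viability measured by MTS 6 days after treating human pancreatic carcinoma PANC-1 cells with compound serially diluted 2-fold in DMSO; absorbance 492–630 nm normalized to solvent control. Triplicate measurements averaged and fitted to a 4-parameter logistic curve.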

SMILES	IC50 [µM]	inhibition at 0.3125 µM (PANC-1, MTS, 6 days) [%]	further results
CC(C)C[C@H]1ON(C(=O)/C=C/c2nc3ccccc3s2)[C@H]2CN(C3CCN(C(C)C)CC3)C(=O)[C@H](CC(C)(C)C)N2C1=O [ID-73, (3R,6S,9aS)-1-((E)-3-(benzo[d]thiazol-2-yl)acryloyl)-3-isobutyl-8-(1-isopropylpiperidin-4-yl)-6-neopentyltetrahydropyrazino[2,1-c][1,2,4]oxadiazine-4,7(3H,6H)-dione]	0.14	88.1	
CC(C)C[C@H]1ON(C(=O)/C=C/c2nc3ccccc3s2)[C@H]2CN(C3CCN(C)CC3)C(=O)[C@H](CCS(C)(=O)=O)N2C1=O [ID-74, (3R,6S,9aS)-1-((E)-3-(benzo[d]thiazol-2-yl)acryloyl)-3-isobutyl-8-(1-methylpiperidin-4-yl)-6-(2-(methylsulfonyl)ethyl)tetrahydropyrazino[2,1-c][1,2,4]oxadiazine-4,7(3H,6H)-dione]		38.7	
CC(C)C[C@H]1ON(C(=O)/C=C/c2nc3ccccc3s2)[C@H]2CN(C3CCN(CCCN)CC3)C(=O)[C@H](CC(C)(C)C)N2C1=O [ID-75, (3R,6S,9aS)-8-(1-(3-aminopropyl)piperidin-4-yl)-1-((E)-3-(benzo[d]thiazol-2-yl)acryloyl)-3-isobutyl-6-neopentyltetrahydropyrazino[2,1-c][1,2,4]oxadiazine-4,7(3H,6H)-dione]	0.39	19.9	
CC(C)C[C@H]1ON(C(=O)/C=C/c2nc3ccccc3s2)[C@H]2CN(C3CCN(CCCC(=O)O)CC3)C(=O)[C@H](CC(C)(C)C)N2C1=O [ID-76, 4-(4-((3R,6S,9aS)-1-((E)-3-(benzo[d]thiazol-2-yl)acryloyl)-3-isobutyl-6-neopentyl-4,7-dioxohexahydropyrazino[2,1-c][1,2,4]oxadiazin-8 (1H)-yl)piperidin-1-yl)butanoic acid]	1.6		
CC(C)C[C@H]1ON(C(=O)/C=C/c2nc3ccccc3s2)[C@H]2CN(C3CCN(CCOCCO)CC3)C(=O)[C@H](CC(C)(C)C)N2C1=O [ID-77, (3R,6S,9aS)-1-((E)-3-(benzo[d]thiazol-2-yl)acryloyl)-8-(1-(2-(2-hydroxyethoxy)ethyl)piperidin-4-yl)-3-isobutyl-6-neopentyltetrahydropyrazino[2,1-c][1,2,4]oxadiazine-4,7(3H,6H)-dione]		55.2	
CSc1nccc(/C=C/C(=O)N2O[C@H](CC(C)C)C(=O)N3[C@@H]2CN([C@H]2CCN(CCCCO)C2)C(=O)[C@@H]3CC(C)(C)C)n1 [ID-78, (3R,6S,9aS)-8-((S)-1-(4-hydroxybutyl)pyrrolidin-3-yl)-3-isobutyl-1-((E)-3-(2-(methylthio)pyrimidin-4-yl)acryloyl)-6-neopentyltetrahydropyrazino[2,1-c][1,2,4]oxadiazine-4,7(3H,6H)-dione]		41.5	
CC(C)C[C@H]1ON(C(=O)/C=C/c2nc3ccccc3s2)[C@H]2CN(C3CCN(CCCO)CC3)C(=O)[C@H](CC(C)(C)C)N2C1=O [ID-79, (3R,6S,9aS)-1-((E)-3-(benzo[d]thiazol-2-yl)acryloyl)-8-(1-(3-hydroxypropyl)piperidin-4-yl)-3-isobutyl-6-neopentyltetrahydropyrazino[2,1-c][1,2,4]oxadiazine-4,7(3H,6H)-dione]		72.2	
CC(C)C[C@H]1ON(C(=O)/C=C/c2ccc(-c3cccc(O)c3)cn2)[C@H]2CN(C3CCN(CCCCO)CC3)C(=O)[C@H](CC(C)(C)C)N2C1=O [ID-80, (3R,6S,9aS)-8-(1-(4-hydroxybutyl)piperidin-4-yl)-1-((E)-3-(5-(3-hydroxyphenyl)pyridin-2-yl)acryloyl)-3-isobutyl-6-neopentyltetrahydropyrazino[2,1-c][1,2,4]oxadiazine-4,7(3H,6H)-dione]			inhibition at 0.625 µM (PANC-1, MTS, 6 days, 0.625 μM, read-out: Growth inhibition (%) 0.625 μM): 63.2%
C#Cc1csc(/C=C/C(=O)N2O[C@H](CC(C)C)C(=O)N3[C@@H]2CN([C@H]2CCN(CCCCO)C2)C(=O)[C@@H]3CC(C)(C)C)n1 [ID-81, (3R,6S,9aS)-1-((E)-3-(4-ethynylthiazol-2-yl)acryloyl)-8-((S)-1-(4-hydroxybutyl)pyrrolidin-3-yl)-3-isobutyl-6-neopentyltetrahydropyrazino[2,1-c][1,2,4]oxadiazine-4,7(3H,6H)-dione]		69.6	
CC(C)C[C@H]1ON(C(=O)/C=C/c2nc(-c3cccnc3)cs2)[C@H]2CN([C@H]3CCN(CCCCO)C3)C(=O)[C@H](CC(C)(C)C)N2C1=O [ID-82, (3R,6S,9aS)-8-((S)-1-(4-hydroxybutyl)pyrrolidin-3-yl)-3-isobutyl-6-neopentyl-1-((E)-3-(4-(pyridin-3-yl)thiazol-2-yl)acryloyl)tetrahydropyrazino[2,1-c][1,2,4]oxadiazine-4,7 (3H, 6H)-dione]		48.6	
CC(C)C[C@H]1ON(C(=O)/C=C/c2nc3ccccc3s2)[C@H]2CN(C3CCN(CCC(CO)CO)CC3)C(=O)[C@H](CC(C)(C)C)N2C1=O [ID-83, (3R,6S,9aS)-1-((E)-3-(benzo[d]thiazol-2-yl)acryloyl)-8-(1-(4-hydroxy-3-(hydroxymethyl)butyl)piperidin-4-yl)-3-isobutyl-6-neopentyltetrahydropyrazino[2,1-c][1,2,4]oxadiazine-4,7(3H,6H)-dione]		46.5	
CC(C)C[C@H]1ON(C(=O)/C=C/c2nc3ccccc3s2)[C@H]2CN(C3CN(CCCCO)C3)C(=O)[C@H](CC(C)(C)C)N2C1=O [ID-84, (3R,6S,9aS)-1-((E)-3-(benzo[d]thiazol-2-yl)acryloyl)-8-(1-(4-hydroxybutyl)azetidin-3-yl)-3-isobutyl-6-neopentyltetrahydropyrazino[2,1-c][1,2,4]oxadiazine-4,7(3H,6H)-dione]	0.11	88.9	
CC(C)C[C@H]1ON(C(=O)/C=C/c2nc3c(O)cccc3s2)[C@H]2CN([C@H]3CCN(CCCCO)C3)C(=O)[C@H](CC(C)(C)C)N2C1=O [ID-85, (3R,6S,9aS)-1-((E)-3-(4-hydroxybenzo[d]thiazol-2-yl)acryloyl)-8-((S)-1-(4-hydroxybutyl)pyrrolidin-3-yl)-3-isobutyl-6-neopentyltetrahydropyrazino[2,1-c][1,2,4]oxadiazine-4,7(3H,6H)-dione]	0.11		inhibition at 0.15625 µM (PANC-1, MTS, 6 days, 0.15625 μM, read-out: Growth inhibition (%) 0.15625 μM): 58.9%
CC(C)C[C@@H]1C(=O)N2[C@H](CN(C3CCN(C)CC3)C(=O)[C@@H]2Cc2ccccc2)N1C(=O)/C=C/c1nc2ccccc2s1 [ID-86, (2R,5S,8aR)-1-((E)-3-(benzo[d]thiazol-2-yl)acryloyl)-5-benzyl-2-isobutyl-7-(1-methylpiperidin-4-yl)tetrahydroimidazo[1,2-a]pyrazine-3,6(2H,5H)-dione]			inhibition at 1.25 µM (PANC-1, MTS, 6 days, 1.25 μM, read-out: Growth inhibition (%) 1.25 μM): 50%
CC(C)C[C@H]1ON(C(=O)/C=C/c2nc(C#CC3(N)CC3)cs2)[C@H]2CN([C@H]3CCN(CCCCO)C3)C(=O)[C@H](CC(C)(C)C)N2C1=O [ID-87, (3R, 6S, 9aS)-1-((E)-3-(4-((1-aminocyclopropyl)ethynyl)thiazol-2-yl)acryloyl)-8-((S)-1-(4-hydroxybutyl)pyrrolidin-3-yl)-3-isobutyl-6-neopentyltetrahydropyrazino[2,1-c][1,2,4]oxadiazine-4,7(3H,6H)-dione]		54.5	
CC(C)C[C@H]1ON(C(=O)/C=C/c2nc(C#CCN(C)C)cs2)[C@H]2CN([C@H]3CCN(CCCCO)C3)C(=O)[C@H](CC(C)(C)C)N2C1=O [ID-88, (3R,6S,9aS)-1-((E)-3-(4-(3-(dimethylamino)prop-1-yn-1-yl)thiazol-2-yl)acryloyl)-8-((S)-1-(4-hydroxybutyl)pyrrolidin-3-yl)-3-isobutyl-6-neopentyltetrahydropyrazino[2,1-c][1,2,4]oxadiazine-4,7(3H,6H)-dione]		38	
C#Cc1cnc(/C=C/C(=O)N2O[C@H](CC(C)C)C(=O)N3[C@@H]2CN([C@H]2CCN(CCCCO)C2)C(=O)[C@@H]3CC(C)(C)C)s1 [ID-89, (3R,6S,9aS)-1-((E)-3-(5-ethynylthiazol-2-yl)acryloyl)-8-((S)-1-(4-hydroxybutyl)pyrrolidin-3-yl)-3-isobutyl-6-neopentyltetrahydropyrazino[2,1-c][1,2,4]oxadiazine-4,7(3H,6H)-dione]	0.18	100	
CC(C)(C)C[C@H]1C(=O)N([C@@H]2CCN(CCCCO)C2)C[C@@H]2N(C(=O)/C=C/c3cnc4ccccc4n3)O[C@H](CC3CCCCC3)C(=O)N21 [ID-90, (3R, 6S, 9aS)-3-(cyclohexylmethyl)-8-((R)-1-(4-hydroxybutyl)pyrrolidin-3-yl)-6-neopentyl-1-((E)-3-(quinoxalin-2-yl)acryloyl)tetrahydropyrazino[2,1-c][1,2,4]oxadiazine-4,7(3H,6H)-dione]	0.21	66	inhibition at 1 µM (PANC-1, MTS, 6 days, 1 μM, read-out: Growth inhibition (%) 1 μM): 99%
CC(C)C[C@H]1ON(C(=O)/C=C/c2nc(C#CCCCCCO)cs2)[C@H]2CN(C3CN(CCCCO)C3)C(=O)[C@H](CC(C)(C)C)N2C1=O [ID-91, (3R,6S,9aS)-8-(1-(4-hydroxybutyl)azetidin-3-yl)-1-((E)-3-(4-(7-hydroxyhept-1-yn-1-yl)thiazol-2-yl)acryloyl)-3-isobutyl-6-neopentyltetrahydropyrazino[2,1-c][1,2,4]oxadiazine-4,7(3H,6H)-dione]	0.12		
CC(C)C[C@H]1ON(C(=O)/C=C/c2nc(C#CCCCCO)cs2)[C@H]2CN(C3CN(CCCCO)C3)C(=O)[C@H](CC(C)(C)C)N2C1=O [ID-92, (3R,6S,9aS)-8-(1-(4-hydroxybutyl)azetidin-3-yl)-1-((E)-3-(4-(6-hydroxyhex-1-yn-1-yl)thiazol-2-yl)acryloyl)-3-isobutyl-6-neopentyltetrahydropyrazino[2,1-c][1,2,4]oxadiazine-4,7(3H,6H)-dione]	0.12		
